Test results published in US12473296B2, “Perk inhibiting compounds” (HiberCell, Inc., priority 2019, dated 2025).
pIC50: −log10 of the molar value.

Legend:
[1] = molecular target: EIF2AK3 (PERK) catalytic domain (amino acids 536-1116) (Homo sapiens (Human), UniProt Q9NZJ5); assay: PERK in vitro activity assay (isolated), TR-FRET kinase assay; details: isolated PERK enzyme, 1.5 μM ATP, GFP-eIF2a substrate; read-out: Biochemical IC50
Procedure, shortened: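 Human PERK catalytic domain (aa 536-1116) with 100-200 nM GFP-eIF2a in 50 mM HEPES pH 7.5, 10 mM MgCl2, 1.0 mM EGTA, 0.01% Brij-35; enzyme-started reaction run 45 min at room temperature. Stopped with 10 mM EDTA, 2 nM Tb-anti-phospho-eIF2a added for 90 min; IC50 from TR-FRET ratio by 4-parameter logistic fit.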

PERK = PERK (Homo sapiens (Human), UniProt Q9NZJ5); assay: PERK cellular assay (TR-FRET, HEK293-EGFP-eIF2α cells, tunicamycin-induced ER stress); assay type: cell-based; details: tunicamycin 2 hours, read-out: Cellular IC50 (μM) (EIF2a)
Chain of PERK (Q9NZJ5 30-1116): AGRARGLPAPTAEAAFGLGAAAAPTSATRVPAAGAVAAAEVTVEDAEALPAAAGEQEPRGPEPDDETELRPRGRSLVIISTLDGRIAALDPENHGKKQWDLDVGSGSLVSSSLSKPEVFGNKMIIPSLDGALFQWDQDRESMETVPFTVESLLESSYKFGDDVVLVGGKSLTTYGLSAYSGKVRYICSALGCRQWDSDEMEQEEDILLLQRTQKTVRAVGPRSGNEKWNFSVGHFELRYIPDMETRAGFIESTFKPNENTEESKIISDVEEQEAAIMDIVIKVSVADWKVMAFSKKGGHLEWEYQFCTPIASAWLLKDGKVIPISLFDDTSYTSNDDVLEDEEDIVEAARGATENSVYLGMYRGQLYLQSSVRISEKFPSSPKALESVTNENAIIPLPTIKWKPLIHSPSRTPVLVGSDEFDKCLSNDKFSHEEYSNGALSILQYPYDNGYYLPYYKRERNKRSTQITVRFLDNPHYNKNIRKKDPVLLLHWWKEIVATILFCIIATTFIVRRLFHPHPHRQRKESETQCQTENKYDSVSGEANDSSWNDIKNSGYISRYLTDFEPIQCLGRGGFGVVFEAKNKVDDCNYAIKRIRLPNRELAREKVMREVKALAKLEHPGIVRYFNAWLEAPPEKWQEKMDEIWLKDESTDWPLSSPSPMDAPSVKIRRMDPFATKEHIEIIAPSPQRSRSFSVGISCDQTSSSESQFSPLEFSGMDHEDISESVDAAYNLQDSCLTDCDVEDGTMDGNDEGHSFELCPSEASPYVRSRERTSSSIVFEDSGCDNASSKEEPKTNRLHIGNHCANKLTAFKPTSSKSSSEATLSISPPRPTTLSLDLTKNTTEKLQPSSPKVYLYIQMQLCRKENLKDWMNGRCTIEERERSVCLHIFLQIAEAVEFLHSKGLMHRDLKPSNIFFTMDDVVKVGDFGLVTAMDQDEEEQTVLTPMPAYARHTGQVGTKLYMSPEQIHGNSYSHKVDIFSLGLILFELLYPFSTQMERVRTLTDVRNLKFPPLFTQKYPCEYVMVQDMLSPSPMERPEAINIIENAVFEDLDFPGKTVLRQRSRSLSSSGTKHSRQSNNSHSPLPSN
Procedure, shortened: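 After 2 h tunicamycin ([…]) stress following 30 min compound pretreatment at 37 °C, lysed HEK293-EGFP-eIF2α cells were read by TR-FRET. IC50 derived by 4-parameter logistic fitting of percent inhibition, DMSO-normalized, from 10-point 3-fold dilutions.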

Chain of EIF2AK3 (PERK) catalytic domain (amino acids 536-1116) (Q9NZJ5 536-1116): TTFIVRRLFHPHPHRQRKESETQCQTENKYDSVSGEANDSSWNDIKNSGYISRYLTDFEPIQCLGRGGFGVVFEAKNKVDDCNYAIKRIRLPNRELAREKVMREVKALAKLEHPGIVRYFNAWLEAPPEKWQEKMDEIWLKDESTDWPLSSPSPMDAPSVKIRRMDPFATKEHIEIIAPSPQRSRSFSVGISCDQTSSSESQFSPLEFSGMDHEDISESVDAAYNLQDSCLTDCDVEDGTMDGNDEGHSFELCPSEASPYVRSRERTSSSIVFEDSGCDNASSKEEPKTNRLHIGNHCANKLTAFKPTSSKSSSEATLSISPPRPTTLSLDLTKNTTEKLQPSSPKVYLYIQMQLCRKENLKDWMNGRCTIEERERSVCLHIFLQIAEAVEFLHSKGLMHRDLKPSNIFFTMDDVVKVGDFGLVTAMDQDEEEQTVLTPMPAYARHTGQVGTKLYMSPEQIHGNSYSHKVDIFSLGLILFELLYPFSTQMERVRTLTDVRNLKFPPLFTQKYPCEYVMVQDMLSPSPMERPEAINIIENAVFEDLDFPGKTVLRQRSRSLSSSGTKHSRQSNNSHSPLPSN

Question: How did the pIC50 [1] turn out when `Nc1ncc(-c2ccc(NC(=O)C(O)c3cc(F)cc(F)c3)cc2Cl)cc1C(=O)NCC(F)(F)F` (stereo not drawn) [Example 87, 2-amino-5-(2-chloro-4-(2-(3,5-difluorophenyl)-2-hydroxyacetamido)phenyl)-N-(2,2,2-trifluoroethyl) nicotinamide] was run?
Answer: 7.30 to 7.59

Question: And the IC50 (PERK)?
Answer: 0.101 to 0.25 µM

Question: `Cc1cc(NC(=O)C(O)c2cc(F)cc(F)c2)ccc1-c1cnc(N)c(C(=O)NC2CN(C)C2)c1` (stereo not drawn) [Example 47, 2-amino-5-(4-(2-(3,5-difluorophenyl)-2-hydroxyacetamido)-2-methylphenyl)-N-(1-methylazetidin-3-yl)nicotinamide] was tested. Which pIC50 [1] did it give?
Answer: 7.60 to 9.00

Question: What about the IC50 (PERK) of the same compound?
Answer: 1 to 2 µM

Question: What does the source list for `Cc1cc(NC(=O)C(O)c2ccccc2)ccc1-c1cnc(N)c(C(=O)NC(C)C)c1` (single isomer, unassigned) [Example 2, 2-amino-5-(4-(2-hydroxy-2-phenylacetamido)-2-methylphenyl)-N-isopropylnicotinamide]?
Answer: pIC50 [1]: 7.60 to 9.00; IC50 (PERK): 0.101 to 0.25 µM

Question: Which results are given for `CCc1cccc(C(O)C(=O)Nc2ccc(-c3cnc(N)c(C(=O)NC(C)C)c3)c(CC)c2)c1` (stereo not drawn) [Example 106, 2-amino-5-(2-ethyl-4-(2-(3-ethylphenyl)-2-hydroxyacetamido)phenyl)-N-isopropylnicotinamide]?
Answer: pIC50 [1]: 7.60 to 9.00; IC50 (PERK): 0.001 to 0.025 µM

Question: How did the pIC50 [1] turn out when `CCNC(=O)c1cc(-c2ccc(NC(=O)C(O)c3cc(F)cc(F)c3)cc2C)cnc1N` (single isomer, unassigned) [Example 12, 2-amino-5-(4-(2-(3,5-difluorophenyl)-2-hydroxyacetamido)-2-methylphenyl)-N-ethylnicotinamide] was run?
Answer: 7.60 to 9.00

Question: And the IC50 (PERK)?
Answer: 0.026 to 0.05 µM

Question: How did the pIC50 [1] turn out when `COC1CC(NC(=O)c2cc(-c3ccc(NC(=O)C(O)c4cc(F)cc(F)c4)cc3C)cnc2N)C1` (stereo not drawn) [Example 29, 2-amino-5-(4-(2-(3,5-difluorophenyl)-2-hydroxyacetamido)-2-methylphenyl)-N-(3-methoxycyclobutyl) nicotinamide] was run?
Answer: 7.30 to 7.59

Question: And the IC50 (PERK)?
Answer: 0.251 to 0.5 µM

Question: How did the pIC50 [1] turn out when `CCc1cc(NC(=O)C(O)c2cccc(Cl)c2)ccc1-c1cnc(N)c(C(=O)NC(C)C)c1` (single isomer, unassigned) [Example 108, 2-amino-5-(4-(2-(3-chlorophenyl)-2-hydroxyacetamido)-2-ethylphenyl)-N-isopropylnicotinamide] was run?
Answer: 7.60 to 9.00

Question: What about the IC50 (PERK) of the same compound?
Answer: 0.001 to 0.025 µM

Question: `Cc1cc(NC(=O)C(O)c2cc(F)cc(F)c2)ccc1-c1cnc(N)c(C(=O)NC2CC2)c1` (stereo not drawn) [Example 15, 2-amino-N-cyclopropyl-5-(4-(2-(3,5-difluorophenyl)-2-hydroxyacetamido)-2-methylphenyl) nicotinamide] was tested. Which pIC50 [1] did it give?
Answer: 7.30 to 7.59

Question: And the IC50 (PERK)?
Answer: 0.251 to 0.5 µM

Question: How did the pIC50 [1] turn out when `CNc1ccc(-c2ccc(NC(=O)C(O)c3cc(F)cc(F)c3)cc2C)cn1` (stereo not drawn) [Example 173, 2-(3,5-difluorophenyl)-2-hydroxy-N-(3-methyl-4-(6-(methylamino)pyridin-3-yl)phenyl)acetamide] was run?
Answer: 6.60 to 7.00

Question: And the IC50 (PERK)?
Answer: > 5 µM

Question: How did the pIC50 [1] turn out when `Cc1cc(NC(=O)Cc2cccc(C(F)(F)F)c2)ccc1-c1cnc(N)c(C(=O)NC(C)C)c1` [Example 202, 2-amino-N-isopropyl-5-(2-methyl-4-(2-(3-(trifluoromethyl)phenyl)acetamido)phenyl)nicotinamide] was run?
Answer: 7.00 to 7.29

Question: What about the IC50 (PERK) of the same compound?
Answer: 0.101 to 0.25 µM

Question: What does the source list for `CCc1cc(NC(=O)C(O)c2cc(F)cc(F)c2)ccc1-c1cnc(N)c(C(=O)NC2CC2)c1` (stereo not drawn) [Example 102, 2-amino-N-cyclopropyl-5-(4-(2-(3,5-difluorophenyl)-2-hydroxyacetamido)-2-ethylphenyl) nicotinamide]?
Answer: pIC50 [1]: 7.60 to 9.00; IC50 (PERK): 0.001 to 0.025 µM

Question: Which results are given for `Cc1cc(NC(=O)C(O)c2cccc(Cl)c2)ccc1-c1cnc(N)c(C(=O)NC(C)C)c1` (stereo not drawn) [Example 69, 2-amino-5-(4-(2-(3-chlorophenyl)-2-hydroxyacetamido)-2-methylphenyl)-N-isopropylnicotinamide]?
Answer: pIC50 [1]: 7.60 to 9.00; IC50 (PERK): 0.026 to 0.05 µM

Question: What does the source list for `CNC(=O)c1nc(-c2ccc(NC(=O)C(O)c3cc(F)cc(F)c3)cc2C)cnc1N` (stereo not drawn) [Example 135, 3-amino-6-(4-(2-(3,5-difluorophenyl)-2-hydroxyacetamido)-2-methylphenyl)-N-methylpyrazine-2-carboxamide]?
Answer: pIC50 [1]: 7.60 to 9.00; IC50 (PERK): 0.026 to 0.05 µM

Question: Which results are given for `COC1CC(NC(=O)c2cc(-c3ccc(NC(=O)C(O)c4cc(F)cc(F)c4)cc3C)cnc2N)C1` (stereo not drawn) [Example 28, 2-amino-5-(4-(2-(3,5-difluorophenyl)-2-hydroxyacetamido)-2-methylphenyl)-N-(3-methoxycyclobutyl) nicotinamide]?
Answer: pIC50 [1]: 7.60 to 9.00; IC50 (PERK): 0.026 to 0.05 µM

Question: `Cc1cc(NC(=O)C(O)c2cc(F)cc(F)c2)ccc1-c1cnc(N)c(C(=O)NCCN(C)C)n1` (stereo not drawn) [Example 146, 3-amino-6-(4-(2-(3,5-difluorophenyl)-2-hydroxyacetamido)-2-methylphenyl)-N-(2-(dimethylamino)ethyl)pyrazine-2-carboxamide] was tested. Which pIC50 [1] did it give?
Answer: 7.30 to 7.59

Question: And the IC50 (PERK)?
Answer: 0.101 to 0.25 µM

Question: With `CCc1cc(NC(=O)C(O)c2cc(F)cc(F)c2)ccc1-c1cnc(N)c(C(=O)NC2COC2)n1` (stereo not drawn) [Example 158, 3-amino-6-(4-(3-(3,5-difluorophenyl)-2-hydroxyacetamido)-2-ethylphenyl)-N-(oxetan-3-yl)pyrazine-2-carboxamide] as the compound, how does the pIC50 [1] read?
Answer: 7.60 to 9.00

Question: And the IC50 (PERK)?
Answer: 0.001 to 0.025 µM

Question: How did the pIC50 [1] turn out when `Nc1ncc(-c2ccc(NC(=O)C(O)c3cc(F)cc(F)c3)cc2Cl)cc1C(=O)NC1CC1` (stereo not drawn) [Example 84, 2-amino-5-(2-chloro-4-(2-(3,5-difluorophenyl)-2-hydroxyacetamido)phenyl)-N-cyclopropyl-nicotinamide] was run?
Answer: 7.60 to 9.00

Question: And the IC50 (PERK)?
Answer: 0.001 to 0.025 µM

Question: Which results are given for `CCc1cc(NC(=O)C(O)c2cc(F)cc(F)c2)ccc1-c1cnc(N)c(C(=O)NCC(F)(F)F)c1` (stereo not drawn) [Example 100, 2-amino-5-(4-(2-(3,5-difluorophenyl)-2-hydroxyacetamido)-2-ethylphenyl)-N-(2,2,2-trifluoroethyl) nicotinamide]?
Answer: pIC50 [1]: 7.60 to 9.00; IC50 (PERK): 0.001 to 0.025 µM

Question: How did the pIC50 [1] turn out when `CC(C)NC(=O)c1cc(-c2ccc(NC(=O)C(O)c3cc(F)cc(F)c3)c(F)c2Cl)cnc1N` (stereo not drawn) [Example 123, 2-amino-5-(2-chloro-4-(2-(3,5-difluorophenyl)-2-hydroxyacetamido)-3-fluorophenyl)-N-isopropylnicotinamide] was run?
Answer: 7.60 to 9.00

Question: And the IC50 (PERK)?
Answer: 0.001 to 0.025 µM

Question: What does the source list for `Cc1cc(NC(=O)C(O)c2cccc(C(F)(F)F)c2)ncc1-c1cnc(N)c(C(=O)NC(C)C)c1` (stereo not drawn) [Example 128, 6-amino-6′-(2-hydroxy-2-(3-(trifluoromethyl)phenyl)acetamido)-N-isopropyl-4′-methyl-[3,3′-bipyridine]-5-carboxamide]?
Answer: pIC50 [1]: 7.00 to 7.29; IC50 (PERK): > 5 µM

Question: Which results are given for `Cc1cc(NC(=O)Cc2ccc3ccccc3c2)ccc1-c1cnc(N)c(C(=O)NC(C)C)c1` [Example 208, 2-amino-N-isopropyl-5-(2-methyl-4-(2-(naphthalen-2-yl)acetamido)phenyl)nicotinamide]?
Answer: pIC50 [1]: 7.30 to 7.59; IC50 (PERK): 0.101 to 0.25 µM

Question: How did the pIC50 [1] turn out when `CCNC(=O)c1cc(-c2ccc(NC(=O)C(O)c3cc(F)cc(F)c3)c(F)c2C)cnc1N` (stereo not drawn) [Example 117, 2-amino-5-(4-(2-(3,5-difluorophenyl)-2-hydroxyacetamido)-3-fluoro-2-methylphenyl)-N-ethylnicotinamide] was run?
Answer: 7.60 to 9.00

Question: And the IC50 (PERK)?
Answer: 0.001 to 0.025 µM

Question: With `CC(C)NC(=O)c1cc(-c2ccc(NC(=O)C(O)c3cc(F)cc(F)c3)cc2Cl)cnc1N` (single isomer, unassigned) [Example 34] as the compound, how does the pIC50 [1] read?
Answer: 7.60 to 9.00

Question: What about the IC50 (PERK) of the same compound?
Answer: 0.001 to 0.025 µM

Question: How did the pIC50 [1] turn out when `Cc1cc(NC(=O)C(O)c2cc(F)cc(F)c2)ccc1-c1cnc(N)c(C(=O)NCC(F)(F)F)c1` (single isomer, unassigned) [Example 19, 2-amino-5-(4-(2-(3,5-difluorophenyl)-2-hydroxyacetamido)-2-methylphenyl)-N-(2,2,2-trifluoroethyl) nicotinamide] was run?
Answer: 6.60 to 7.00

Question: What about the IC50 (PERK) of the same compound?
Answer: 0.101 to 0.25 µM

Question: `CCc1cc(NC(=O)C(O)c2cc(F)cc(F)c2)ccc1-c1cnc(N)c(C(=O)NC2COC2)n1` (stereo not drawn) [Example 159, 3-amino-6-(4-(2-(3,5-difluorophenyl)-2-hydroxyacetamido)-2-ethylphenyl)-N-(oxetan-3-yl)pyrazine-2-carboxamide] was tested. Which pIC50 [1] did it give?
Answer: 7.30 to 7.59

Question: And the IC50 (PERK)?
Answer: 0.101 to 0.25 µM

Question: With `Cc1c(-c2cnc(N)c(C(=O)NC3COC3)c2)ccc(NC(=O)C(O)c2cc(F)cc(F)c2)c1F` (stereo not drawn) [Example 122, 2-amino-5-(4-(2-(3,5-difluorophenyl)-2-hydroxyacetamido)-3-fluoro-2-methylphenyl)-N-(oxetan-3-yl)nicotinamide] as the compound, how does the pIC50 [1] read?
Answer: 6.30 to 6.60

Question: What about the IC50 (PERK) of the same compound?
Answer: 0.501 to 1 µM

Question: With `Nc1ncc(-c2ccc(NC(=O)C(O)c3cc(F)cc(F)c3)cc2Cl)cc1C(=O)NCC(F)(F)F` (stereo not drawn) [Example 86, 2-amino-5-(2-chloro-4-(2-(3,5-difluorophenyl)-2-hydroxyacetamido)phenyl)-N-(2,2,2-trifluoroethyl) nicotinamide] as the compound, how does the pIC50 [1] read?
Answer: 7.60 to 9.00

Question: And the IC50 (PERK)?
Answer: 0.001 to 0.025 µM

Question: How did the pIC50 [1] turn out when `Nc1ncc(-c2ccc(NC(=O)C(O)c3cc(F)cc(F)c3)cc2Cl)nc1C(=O)NC1COC1` (stereo not drawn) [Example 169, 3-amino-6-(2-chloro-4-(2-(3,5-difluorophenyl)-2-hydroxyacetamido)phenyl)-N-(oxetan-3-yl)pyrazine-2-carboxamide] was run?
Answer: 7.60 to 9.00

Question: What about the IC50 (PERK) of the same compound?
Answer: 0.001 to 0.025 µM

Question: `Cc1cccc(C(O)C(=O)Nc2ccc(-c3cnc(N)c(C(=O)NC(C)C)c3)c(C)c2)c1` (stereo not drawn) [Example 66, 2-amino-5-(4-(2-hydroxy-2-(m-tolyl)acetamido)-2-methylphenyl)-N-isopropylnicotinamide] was tested. Which pIC50 [1] did it give?
Answer: 6.60 to 7.00

Question: What about the IC50 (PERK) of the same compound?
Answer: 1 to 2 µM

Question: How did the pIC50 [1] turn out when `Cc1cc(NC(=O)CC2CCCCC2)ccc1-c1cnc(N)c(C(=O)NC(C)C)c1` [Example 216, 2-amino-5-(4-(2-cyclohexylacetamido)-2-methylphenyl)-N-isopropylnicotinamide] was run?
Answer: 5.70 to 6.00

Question: And the IC50 (PERK)?
Answer: > 5 µM
